Data set [1] is described as follows: Inhibition of DNA-PK (unknown origin) expressed in human HeLa cells. Format: cell-based.
For data set [2], the target named is Protein arginine N-methyltransferase 5 (Homo sapiens, UniProt O14744). In words: Binding affinity to PRMT5 (unknown origin) assessed as inhibition constant.
Data set [3] can be described thus: Antiproliferative activity against human HCT116-MTAP null cells assessed as reduction in cell growth incubated for 72 hrs by MTT assay. The format is functional, cell-based. (Tetrazolium assays rely on reduction of a dye to a coloured formazan, in cell work by metabolically active cells.)
Data set [4] addresses Serine/threonine-protein kinase ATR (Homo sapiens, UniProt Q13535). In words: Inhibition of human recombinant ATR incubated for 40 mins by fluorescence based analysis.
Data set [5] concerns the target Poly [ADP-ribose] polymerase 1 (Homo sapiens, UniProt P09874). Briefly: Inhibition of PARP-1 (unknown origin).
Data set [6] can be described thus: AUC (0 to t) in Sprague-Dawley rat at 20 mg/kg, po by LC-MS/MS analysis. The format is ADME, organism-based. Particulars: in vivo.
Data set [7] relates to MV4-11. Briefly: Antiproliferative activity against human MV4-11 cells assessed as reduction in cell viability incubated for 72 hrs by MTS assay. Format: functional, cell-based. Conditions: MV4-11, 72 h.
The nature of data set [8]: Half life in Sprague-Dawley rat at 20 mg/kg, po by LC-MS/MS analysis. Format: ADME, organism-based. Particulars: in vivo.
In data set [9] the target is T1, Serine/threonine-protein kinase Chk1 (Homo sapiens, UniProt O14757).
T1 sequence (O14757 whole entry): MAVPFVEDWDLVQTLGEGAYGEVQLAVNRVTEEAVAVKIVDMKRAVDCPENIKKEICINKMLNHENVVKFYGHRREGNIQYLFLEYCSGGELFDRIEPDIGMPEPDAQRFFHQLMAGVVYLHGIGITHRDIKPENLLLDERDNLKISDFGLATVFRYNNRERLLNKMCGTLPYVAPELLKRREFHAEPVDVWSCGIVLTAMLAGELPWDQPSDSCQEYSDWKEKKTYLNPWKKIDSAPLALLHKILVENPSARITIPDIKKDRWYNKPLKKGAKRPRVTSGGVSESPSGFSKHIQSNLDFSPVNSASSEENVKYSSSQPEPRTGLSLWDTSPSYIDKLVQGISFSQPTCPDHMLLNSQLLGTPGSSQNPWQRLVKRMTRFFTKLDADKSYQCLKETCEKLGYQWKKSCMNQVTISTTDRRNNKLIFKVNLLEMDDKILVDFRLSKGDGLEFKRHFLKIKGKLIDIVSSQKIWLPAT
In words: Inhibition of CHK1 (unknown origin).

The target in data set [10] is T2, DNA repair protein RAD51 homolog 1 (Homo sapiens, UniProt Q06609).
T2 sequence (Q06609 whole entry): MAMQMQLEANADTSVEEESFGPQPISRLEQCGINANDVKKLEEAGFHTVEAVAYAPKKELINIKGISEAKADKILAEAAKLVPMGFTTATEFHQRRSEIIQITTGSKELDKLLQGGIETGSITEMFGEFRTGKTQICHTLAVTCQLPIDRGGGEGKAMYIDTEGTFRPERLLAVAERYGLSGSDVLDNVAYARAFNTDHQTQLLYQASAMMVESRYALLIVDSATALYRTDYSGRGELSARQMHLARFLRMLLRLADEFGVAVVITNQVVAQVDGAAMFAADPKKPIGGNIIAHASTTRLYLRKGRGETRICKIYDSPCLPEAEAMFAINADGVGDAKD
Briefly: Inhibition of RAD51 (unknown origin).

Data set [11] concerns the target Serine/threonine-protein kinase VRK2 (Homo sapiens, UniProt Q86Y07). In words: Inhibition of VRK2 (14 to 335 residues) (unknown origin) extracted from Escherichia coli BL21 (DE3)-R3 cells.
In data set [12] the target is Serine-protein kinase ATM (Homo sapiens, UniProt Q13315). In words: Inhibition of ATM (unknown origin).
Data set [13] deals with Serine/threonine-protein kinase mTOR (Homo sapiens, UniProt P42345). In words: Inhibition of human mTOR.
For data set [14], the system named is MDA-MB-436. Briefly: Antiproliferative activity against human MDA-MB-436 cells assessed as reduction in cell viability. The format is functional, cell-based.

Serine/threonine-protein kinase ATR, sequence (Q13535 whole entry): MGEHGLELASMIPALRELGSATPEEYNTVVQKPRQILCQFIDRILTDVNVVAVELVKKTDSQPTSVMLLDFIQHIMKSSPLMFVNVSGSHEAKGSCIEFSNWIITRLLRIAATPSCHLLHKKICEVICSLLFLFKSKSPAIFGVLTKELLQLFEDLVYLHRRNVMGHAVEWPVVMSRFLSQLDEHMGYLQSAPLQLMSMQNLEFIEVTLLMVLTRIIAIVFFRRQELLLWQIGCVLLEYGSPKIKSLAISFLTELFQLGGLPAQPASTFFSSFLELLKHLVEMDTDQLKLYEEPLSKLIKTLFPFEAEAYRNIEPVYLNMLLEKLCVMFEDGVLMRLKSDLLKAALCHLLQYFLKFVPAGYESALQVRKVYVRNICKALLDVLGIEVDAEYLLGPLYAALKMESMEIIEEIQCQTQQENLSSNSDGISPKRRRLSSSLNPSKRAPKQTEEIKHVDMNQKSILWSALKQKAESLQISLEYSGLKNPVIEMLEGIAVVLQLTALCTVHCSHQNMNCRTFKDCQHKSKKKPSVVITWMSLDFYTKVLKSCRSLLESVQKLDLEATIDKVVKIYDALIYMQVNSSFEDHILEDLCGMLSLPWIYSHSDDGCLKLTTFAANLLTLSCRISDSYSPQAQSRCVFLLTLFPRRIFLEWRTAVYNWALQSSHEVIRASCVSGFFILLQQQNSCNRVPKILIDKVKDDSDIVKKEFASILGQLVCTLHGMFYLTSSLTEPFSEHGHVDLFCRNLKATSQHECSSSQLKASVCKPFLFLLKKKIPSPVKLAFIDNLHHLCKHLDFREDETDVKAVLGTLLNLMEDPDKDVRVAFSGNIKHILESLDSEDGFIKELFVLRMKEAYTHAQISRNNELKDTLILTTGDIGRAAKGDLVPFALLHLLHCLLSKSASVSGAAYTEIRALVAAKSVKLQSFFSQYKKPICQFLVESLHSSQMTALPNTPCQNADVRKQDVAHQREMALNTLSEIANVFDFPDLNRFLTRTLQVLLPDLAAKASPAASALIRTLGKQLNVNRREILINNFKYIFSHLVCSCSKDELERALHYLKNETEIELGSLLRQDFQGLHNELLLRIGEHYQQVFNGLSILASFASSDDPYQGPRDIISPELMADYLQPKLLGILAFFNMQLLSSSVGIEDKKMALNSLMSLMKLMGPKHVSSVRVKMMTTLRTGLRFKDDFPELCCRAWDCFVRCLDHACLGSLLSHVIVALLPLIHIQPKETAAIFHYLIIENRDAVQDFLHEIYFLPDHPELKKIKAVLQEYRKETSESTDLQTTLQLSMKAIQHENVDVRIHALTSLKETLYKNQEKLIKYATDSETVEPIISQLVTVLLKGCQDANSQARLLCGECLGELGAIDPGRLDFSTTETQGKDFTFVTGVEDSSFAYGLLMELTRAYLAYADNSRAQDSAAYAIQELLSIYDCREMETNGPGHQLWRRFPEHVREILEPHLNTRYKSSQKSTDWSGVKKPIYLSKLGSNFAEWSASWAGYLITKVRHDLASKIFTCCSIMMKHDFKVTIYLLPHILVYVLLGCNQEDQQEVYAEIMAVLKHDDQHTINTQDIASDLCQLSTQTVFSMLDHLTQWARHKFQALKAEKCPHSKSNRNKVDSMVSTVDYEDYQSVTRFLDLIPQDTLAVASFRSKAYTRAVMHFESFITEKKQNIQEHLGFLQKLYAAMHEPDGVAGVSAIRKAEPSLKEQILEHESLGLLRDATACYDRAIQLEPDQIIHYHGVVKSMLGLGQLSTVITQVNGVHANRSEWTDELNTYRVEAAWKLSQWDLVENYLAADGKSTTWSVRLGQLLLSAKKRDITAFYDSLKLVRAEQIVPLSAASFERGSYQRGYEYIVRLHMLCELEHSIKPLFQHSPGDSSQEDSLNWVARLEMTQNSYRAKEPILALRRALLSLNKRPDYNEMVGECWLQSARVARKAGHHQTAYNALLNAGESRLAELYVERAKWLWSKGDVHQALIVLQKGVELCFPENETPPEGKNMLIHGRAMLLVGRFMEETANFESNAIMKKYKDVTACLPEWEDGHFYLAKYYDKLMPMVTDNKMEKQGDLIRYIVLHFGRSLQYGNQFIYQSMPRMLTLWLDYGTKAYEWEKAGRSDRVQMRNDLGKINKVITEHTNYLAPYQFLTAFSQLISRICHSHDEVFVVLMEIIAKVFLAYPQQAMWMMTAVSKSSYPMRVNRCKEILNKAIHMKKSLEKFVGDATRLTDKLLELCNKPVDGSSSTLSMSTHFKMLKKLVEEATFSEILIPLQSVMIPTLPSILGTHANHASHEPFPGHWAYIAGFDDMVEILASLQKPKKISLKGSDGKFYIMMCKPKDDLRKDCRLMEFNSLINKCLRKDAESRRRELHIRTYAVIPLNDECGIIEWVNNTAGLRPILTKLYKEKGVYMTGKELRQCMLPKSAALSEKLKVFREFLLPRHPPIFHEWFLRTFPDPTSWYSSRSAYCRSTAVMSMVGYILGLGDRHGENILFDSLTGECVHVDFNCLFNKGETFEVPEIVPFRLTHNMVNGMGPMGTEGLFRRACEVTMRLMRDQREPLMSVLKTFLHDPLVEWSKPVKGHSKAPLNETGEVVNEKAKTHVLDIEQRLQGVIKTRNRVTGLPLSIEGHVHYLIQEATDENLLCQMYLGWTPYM
Protein arginine N-methyltransferase 5, sequence (O14744 whole entry): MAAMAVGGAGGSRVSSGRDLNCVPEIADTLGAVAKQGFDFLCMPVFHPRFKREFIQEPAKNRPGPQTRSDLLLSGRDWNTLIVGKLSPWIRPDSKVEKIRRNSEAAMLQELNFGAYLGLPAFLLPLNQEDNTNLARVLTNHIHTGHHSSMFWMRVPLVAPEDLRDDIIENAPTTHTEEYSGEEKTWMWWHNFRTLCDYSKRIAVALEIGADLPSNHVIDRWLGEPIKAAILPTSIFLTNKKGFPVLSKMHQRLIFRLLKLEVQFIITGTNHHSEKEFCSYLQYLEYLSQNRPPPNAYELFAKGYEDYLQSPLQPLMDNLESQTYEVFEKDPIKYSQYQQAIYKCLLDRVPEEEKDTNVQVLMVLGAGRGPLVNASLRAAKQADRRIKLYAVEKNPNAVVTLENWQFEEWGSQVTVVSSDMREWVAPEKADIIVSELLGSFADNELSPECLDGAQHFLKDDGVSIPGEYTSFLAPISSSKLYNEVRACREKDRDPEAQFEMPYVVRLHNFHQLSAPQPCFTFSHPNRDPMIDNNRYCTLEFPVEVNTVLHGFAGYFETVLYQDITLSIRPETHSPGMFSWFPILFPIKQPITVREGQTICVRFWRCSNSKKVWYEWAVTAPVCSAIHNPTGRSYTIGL
Serine/threonine-protein kinase VRK2, sequence (Q86Y07 whole entry, the tested form may be a part): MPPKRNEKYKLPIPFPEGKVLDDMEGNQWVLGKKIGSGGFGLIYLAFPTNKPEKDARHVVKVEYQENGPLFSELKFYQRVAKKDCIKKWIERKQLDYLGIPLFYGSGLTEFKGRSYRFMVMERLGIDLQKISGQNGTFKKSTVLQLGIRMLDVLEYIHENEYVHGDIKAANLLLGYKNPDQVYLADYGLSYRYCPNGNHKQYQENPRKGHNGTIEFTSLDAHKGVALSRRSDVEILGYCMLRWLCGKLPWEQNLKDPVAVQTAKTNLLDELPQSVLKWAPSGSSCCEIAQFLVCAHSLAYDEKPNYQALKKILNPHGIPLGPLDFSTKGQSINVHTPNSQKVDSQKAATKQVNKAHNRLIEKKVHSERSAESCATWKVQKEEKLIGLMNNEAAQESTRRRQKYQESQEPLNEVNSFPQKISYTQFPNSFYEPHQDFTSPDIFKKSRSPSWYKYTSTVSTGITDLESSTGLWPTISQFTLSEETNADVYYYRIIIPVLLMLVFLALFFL
Poly [ADP-ribose] polymerase 1, sequence (P09874 whole entry): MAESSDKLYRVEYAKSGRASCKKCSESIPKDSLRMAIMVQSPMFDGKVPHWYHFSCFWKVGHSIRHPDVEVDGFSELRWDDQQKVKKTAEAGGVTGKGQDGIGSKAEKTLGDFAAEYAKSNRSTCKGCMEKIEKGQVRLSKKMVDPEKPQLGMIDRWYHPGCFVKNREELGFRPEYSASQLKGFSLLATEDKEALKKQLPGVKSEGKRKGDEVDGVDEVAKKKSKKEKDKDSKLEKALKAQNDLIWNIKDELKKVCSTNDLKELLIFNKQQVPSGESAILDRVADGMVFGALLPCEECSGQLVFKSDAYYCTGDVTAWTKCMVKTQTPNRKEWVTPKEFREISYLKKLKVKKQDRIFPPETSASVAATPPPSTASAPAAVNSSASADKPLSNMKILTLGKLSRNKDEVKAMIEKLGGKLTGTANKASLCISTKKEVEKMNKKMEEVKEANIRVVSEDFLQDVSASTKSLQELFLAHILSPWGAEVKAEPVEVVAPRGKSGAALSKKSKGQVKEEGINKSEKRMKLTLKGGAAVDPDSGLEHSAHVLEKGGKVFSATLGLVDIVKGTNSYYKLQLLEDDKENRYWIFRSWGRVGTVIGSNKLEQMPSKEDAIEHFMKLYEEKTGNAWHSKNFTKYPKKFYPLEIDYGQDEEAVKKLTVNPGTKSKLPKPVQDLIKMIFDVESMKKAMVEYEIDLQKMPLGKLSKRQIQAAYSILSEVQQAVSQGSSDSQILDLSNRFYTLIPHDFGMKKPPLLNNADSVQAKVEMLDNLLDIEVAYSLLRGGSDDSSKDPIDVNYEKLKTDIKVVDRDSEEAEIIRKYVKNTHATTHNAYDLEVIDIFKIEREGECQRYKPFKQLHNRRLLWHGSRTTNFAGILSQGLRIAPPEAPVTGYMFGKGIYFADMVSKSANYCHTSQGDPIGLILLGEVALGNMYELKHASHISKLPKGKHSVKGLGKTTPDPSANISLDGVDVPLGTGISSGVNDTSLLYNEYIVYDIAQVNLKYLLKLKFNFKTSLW

With `COc1cccc(NC(=O)c2cc(-c3ccc(/C=C4\C(=O)N(c5cccc(C(=O)O)c5)N=C4C)o3)ccc2Cl)c1`, half-maximal inhibition in data set [1] (IC50) required 3120 nM.
Consider `Cc1cc2cc(C(=O)N(Cc3ccc(C(F)(F)F)cn3)[C@@H]3CCCc4cn[nH]c43)ccc2nc1N`, for which the Ki in data set [2] came out at 0.05 nM. Further, the IC50 in data set [3] was determined as 10 nM.
On to `C[C@@H]1COCCN1c1nc(-c2ccnn2C)c2c(n1)c(-c1ccn[nH]1)nn2C`, for which the 50% inhibitory concentration (IC50) in data set [4] was found to be 1 nM.
On to `Cc1ccoc1C(=O)N1CCCN(C(=O)c2ccc(-c3nc4c(C(N)=O)cccc4[nH]3)cc2)CC1`, for which, in [5], the IC50 was found to be 22.8 nM.
In data set [1], `COC1/C=C/Cc2cnc3cc(C)c(cn23)Nc2ncc3c(n2)n(c(=O)n3C)CC1` (stereo unspecified) had a half-inhibitory concentration (IC50) of 4 nM.
Regarding `Cn1cc(-c2cnc(Nc3ccc(C#N)nc3)nc2N[C@H]2CCCNC2)cn1`, the AUCt in data set [6] (po, 20 mg/kg) was 1370 ng·h/mL. Also, the IC50 in data set [7] was 35 nM. Besides, the half-life in data set [8] is 5.3 h.
As to `Cc1cc2ncc3n2cc1Nc1ncc2c(n1)n(c(=O)n2C)CCCCC3`, the IC50 in [1] was 4 nM.
Turning to `COc1cccc(NC(=O)c2cc(-c3ccc(CC4C(=O)N(c5cccc(C(=O)O)c5)N=C4C)o3)ccc2Cl)c1` (stereo unspecified), inhibition in data set [1] was half-maximal at 500 nM (IC50).
As for `Cc1cc(C(N)=O)ccc1Nc1ncc2c(n1)n(C1CCOCC1)c(=O)n2C`, in data set [1], the IC50 was determined as 0.08 nM.
Take `Nc1nc2cc(F)c(C(=O)N(Cc3ccc(C(F)(F)F)cn3)C34CC(C3)C4)cc2c2c1COC2`: the IC50 in [3] amounted to 8 nM.
In [6] (Sprague-Dawley), `N#Cc1ncc(Nc2ncc(-c3ccccc3)s2)cc1N[C@@H]1CCNC1` registered an AUC(0-t) of 10700 ng·h/mL. The 50% inhibitory concentration (IC50) in [9] was 4.25 nM.
`O=c1nc(/C=C/c2cccnc2)n(Cc2ccccc2)c2ccccc12` had an IC50 in data set [10] of 4300 nM.
`COc1cccc(NC(=O)c2cc(-c3ccc(CC4C(=O)N(c5cccc(C(=O)O)c5)N=C4C(F)(F)F)o3)ccc2Cl)c1` (stereo unspecified): in data set [1], the IC50 amounted to 110 nM.
Take `CC(C)CCN1c2nc(Nc3cc(F)c(O)c(F)c3)ncc2N(C)C(=O)[C@@H]1C`: the IC50 in data set [11] was 196 nM.
`C[C@@H]1COC[C@H]2COc3c(nc(-c4ccnc5[nH]ccc45)nc3C(C)(C)C#N)N21`: the 50% inhibitory concentration (IC50) in data set [4] turned out to be 16 nM.
`COc1cccc(NC(=O)c2cc(-c3ccc(CC4C(=O)N(c5cccc(-c6nnn[nH]6)c5)N=C4C)o3)ccc2Cl)c1` (stereo unspecified) showed an IC50 in [1] of 240 nM.
Compound `Cn1c(=O)n2c3ccccc3oc3c(-c4ccc(OCCCN5CCCCC5)nc4)c(F)cc4ncc1c2c43` displayed a half-maximal inhibitory concentration (IC50) in data set [12] of 0.45 nM.
In turn, `O=c1nc(/C=C/c2cccnc2)n(Cc2ccc(I)cc2)c2ccccc12` had a half-inhibitory concentration (IC50) in data set [10] of 720 nM.
For the compound `C[C@@H]1COCCN1c1cc([C@]2(O)C[C@H]3CC[C@@H](C2)O3)c2cnn(-c3cc[nH]n3)c2n1` [CAMONSERTIB], the IC50 in [4] came to 1 nM; in data set [13], 120 nM.
In data set [12], `COc1cc2ncn(-c3cc(OCc4ccccc4C(F)(F)F)c(C(N)=O)s3)c2cc1OC` [GW843682X] registered an IC50 of 480 nM.
In the case of `O=C(c1cc(Cc2n[nH]c(=O)c3ccccc23)ccc1F)N1CCN(C(=O)C2CC2)CC1` [OLAPARIB], in [14], the IC50 was 23900 nM.

For orientation: IC50 means the point on the concentration scale where inhibition reaches its midpoint. As usually defined, the Ki is a dissociation constant, usually derived from enzyme kinetics or from competition with a known ligand. Usually half-life stands for the time in which the quantity being followed falls by half. Higher therefore signals slow loss. For orientation: AUC(0-t) means the area under the concentration-time curve up to a stated or last time point.

The values above are taken from ChEMBL document CHEMBL6127039, “An update on small molecule compounds targeting synthetic lethality for cancer therapy” (Eur J Med Chem, 2024).
